Tested on: glia
Assay: dual labeling of cortical slices with mag-Indo-1AM and sulforhodamine (neurons vs glia)
Type: cell-based, mice
Conditions: 145/2555; n=4 slices; neocortical slices
Protocol: FIGS. 9(a)-9(d) are exemplary images mag-Indo-1-AM loads mostly neurons in which slices are simultaneously loaded with mag-Indo1-AM and Sulforhodamine 101 (e.g., SR101, 20 μM) and imaged at their respective exemplary wavelengths;
(See A. Nimmerjahn, F. Kirchhoff, J. N. Kerr et al., Nat Methods 1 (1), 31 (2004)). For example, 5.7±1.56% (145/2555; n=4 slices) of mag-Indo-1AM loaded cells can also be loaded with sulforhodamine, and only 8.1 t 2.59% (145/1786, n=4 slices) of sulforhodamine-loaded cells can also be loaded with mag-Indo-1AM.
Coronal neocortical slices can be prepared from, e.g., P12-15 C57/BL6 mice or somatostatin-GFP mice (see A. A. Oliva, Jr., M. Jiang, T. Lam et al., J Neurosci 20 (9), 3354 (2000)) (e.g., Jackson Laboratory, Bar Harbor, Me.) with a vibratome (e.g., VT1000S; Leica, Nussloch, Germany). 300 μm thick slices can be cut in ice-cold oxygenated modified ACSF that can include 1 mM CaCl2 and 3 mM MgSO4, in which NaCl can be replaced by an equimolar concentration of sucrose (in mM): 27 NaHCO3, 1.5 NaH2PO4, 222 Sucrose, 2.6 KCl. Slices can then be placed in oxygenated standard ACSF at 37° C. for 30 min. For AM-loading, slices can be deposited onto the bottom of a small Petri dish (35×10 mm) filled with 2 ml of ACSF, ventilated with 95% O2/5% CO2 and placed in a slide warmer at 37° C. (Fisher Scientific, Waltham Mass.). […]

## mag-Indo-1AM
  mag-Indo-1AM loaded cells also loaded with sulforhodamine: 5.7±1.56%

Reference: patent publication US11531207B2, “Devices, apparatus and method for providing photostimulation and imaging of structures” (The Trustees of Columbia University in the City of New York, priority 2008, dated 2022)
